Source: patent publication US11566007B2, “Ras inhibitors” (Revolution Medicines, Inc., priority 2019, dated 2023)
Where two headings read alike, the source gives them in different places.

Assays:
[1] = tested on: NCI-H358 cells (K-Ras G12C); assay: Potency assay: pERK in NCI-H358 cells; format: cell-based, human; conditions: H358 KRAS G12C, read-out: pERK EC50
Procedure, shortened: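 4 h cpd, 37 °C; 10-pt 3-fold series, 10 mM DMSO top stock, duplicates. Readout pERK: AlphaLISA SureFire Ultra or In-Cell Western (IR-800CW secondary, DRAQ5 DNA stain). IC50, 4-PL fit vs log conc.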

NCI-H358 (K-Ras G12C) = assay: CellTiter-Glo cell viability assay, NCI-H358; format: cell-based, human; conditions: NCI-H358, 5-day treatment, class symbols, read-out: Additional H358 Cell Viability assay data (K-Ras G12C, IC50)
Procedure, shortened: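 Viability measured by CellTiter-Glo luminescence on day 5 following direct addition of compound to plated cells. Values expressed as percent of mean DMSO signal; curves fitted with a four-parameter logistic model.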

K-Ras G13C = K-Ras G13C (Homo sapiens (Human), UniProt P01116+P62937, G13C); assay: Ras-Raf (BRAF RBD) disruption / FRET / MOA assay, KRAS G13C; format: biochemical; conditions: KRAS G13C; Ras-Raf disruption/FRET/MOA assay; read-out: IC50* KRAS G13C FRET data
Procedure, shortened: (§1)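 Compound-driven ternary complex of nucleotide-loaded Ras with cyclophilin A, disrupting BRAF RBD binding. 10-point 3-fold dilution from 30 μM final, 3 h at 25° C, then anti-His Eu-W1024 (10 nM) and anti-GST allophycocyanin (50 nM) for 1.5 h. IC50 from TR-FRET ratio decrease versus DMSO.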

KRAS G12S = KRAS G12S (Homo sapiens (Human), UniProt P01116+P62937, G12S); assay: Ras-Raf (BRAF RBD) disruption / FRET / MOA assay, KRAS G12S; format: biochemical
Procedure, shortened: as §1

KRAS G12D = KRAS G12D (Homo sapiens (Human), UniProt P01116+P62937, G12D); assay: Ras-Raf (BRAF RBD) disruption / FRET / MOA assay, KRAS G12D; format: biochemical
Procedure, shortened: as §1

KRAS G12V = KRAS G12V (Homo sapiens (Human), UniProt P01116+P62937, G12V); assay: Ras-Raf (BRAF RBD) disruption / FRET / MOA assay, KRAS G12V; format: biochemical; conditions: read-out: IC50* KRAS G12V FRET data
Procedure, shortened: as §1

KRAS WT = KRAS WT (Homo sapiens (Human), UniProt P01116+P62937); assay: Ras-Raf (BRAF RBD) disruption / FRET / MOA assay, KRAS WT; format: biochemical; conditions: read-out: IC50* KRAS WT FRET data
Procedure, shortened: as §1

NRAS G12C = NRAS G12C (Homo sapiens (Human), UniProt P01111+P62937, G12C); assay: Ras-Raf (BRAF RBD) disruption / FRET / MOA assay, NRAS G12C; format: biochemical; conditions: read-out: IC50* NRAS G12C FRET data
Procedure, shortened: as §1

NRAS Q61R = NRAS Q61R (Homo sapiens (Human), UniProt P01111+P62937, Q61R); assay: Ras-Raf (BRAF RBD) disruption / FRET / MOA assay, NRAS Q61R; format: biochemical; conditions: NRAS Q61R; Ras-Raf disruption/FRET/MOA assay; read-out: IC50* NRAS Q61R FRET data
Protocol: (§2) The purpose of this biochemical assay is to measure the ability of test compounds to facilitate ternary complex formation between a nucleotide-loaded Ras isoform and cyclophilin A; the resulting ternary complex disrupts binding to a BRAF^RBD construct, inhibiting Ras signaling through a RAF effector.
(§3) […]. Compound is present in plate wells as a 10-point 3-fold dilution series starting at a final concentration of 30 μM. After incubation at 25° C. for 3 hours, a mixture of Anti-His Eu-W1024 and anti-GST allophycocyanin is then added to assay sample wells at final concentrations of 10 nM and 50 nM, respectively, and the reaction incubated for an additional 1.5 hours. […] Compounds that facilitate disruption of a Ras:RAF complex are identified as those eliciting a decrease in the TR-FRET ratio relative to DMSO control wells.
(§4) Note—The following protocol describes a procedure for monitoring disruption of K-Ras G12C (GMP-PNP) binding to BRAF^RBD by a compound of the invention. This protocol may also be executed substituting other Ras proteins or nucleotides.
(§5) The purpose of this biochemical assay was to measure the ability of test compounds to facilitate ternary complex formation between a nucleotide-loaded K-Ras isoform and Cyclophilin A; the resulting ternary complex disrupts binding to a BRAF^RBD construct, inhibiting K-Ras signaling through a RAF effector. Data is reported as IC50 values.
as §3, with “Compound was” for “Compound is”, “allophycocyanin was” for “allophycocyanin is”, “a K-Ras:RAF” for “a Ras:RAF”, “complex were” for “complex are”

NRAS Q61K = NRAS Q61K (Homo sapiens (Human), UniProt P01111+P62937, Q61K); assay: Ras-Raf (BRAF RBD) disruption / FRET / MOA assay, NRAS Q61K; format: biochemical; conditions: NRAS Q61K; Ras-Raf disruption/FRET/MOA assay; read-out: IC50* NRAS Q61K FRET data
Protocol: as §2, §3, §4, §5
as §3, with “Compound was” for “Compound is”, “allophycocyanin was” for “allophycocyanin is”, “a K-Ras:RAF” for “a Ras:RAF”, “complex were” for “complex are”

NRAS WT = NRAS WT (Homo sapiens (Human), UniProt P01111+P62937); assay: Ras-Raf (BRAF RBD) disruption / FRET / MOA assay, NRAS WT; format: biochemical; conditions: read-out: IC50* NRAS WT FRET data
Protocol: as §2, §3, §4, §5
as §3, with “Compound was” for “Compound is”, “allophycocyanin was” for “allophycocyanin is”, “a K-Ras:RAF” for “a Ras:RAF”, “complex were” for “complex are”

KRAS Q61H = KRAS Q61H (Homo sapiens (Human), UniProt P01116+P62937, Q61H); assay: Ras-Raf (BRAF RBD) disruption / FRET / MOA assay, KRAS Q61H; format: biochemical
Protocol: as §2, §3, §4, §5
as §3, with “Compound was” for “Compound is”, “allophycocyanin was” for “allophycocyanin is”, “a K-Ras:RAF” for “a Ras:RAF”, “complex were” for “complex are”

KRAS G13D = KRAS G13D (Homo sapiens (Human), UniProt P01116+P62937, G13D); assay: Ras-Raf (BRAF RBD) disruption / FRET / MOA assay, KRAS G13D; format: biochemical; conditions: read-out: IC50* KRAS G13D FRET data
Procedure, shortened: as §1

[2] = Ras-Raf disruption/FRET/MOA assay; class symbols; read-out: KRAS G12S FRET data IC50
[3] = Ras-Raf disruption/FRET/MOA assay; class symbols; read-out: KRAS G12D FRET data IC50
[4] = Ras-Raf disruption/FRET/MOA assay; class symbols; read-out: KRAS Q61H FRET data IC50

KRAS G12D, sequence (P01116-2 other isoform, or with tags, fused parts or gaps G12D): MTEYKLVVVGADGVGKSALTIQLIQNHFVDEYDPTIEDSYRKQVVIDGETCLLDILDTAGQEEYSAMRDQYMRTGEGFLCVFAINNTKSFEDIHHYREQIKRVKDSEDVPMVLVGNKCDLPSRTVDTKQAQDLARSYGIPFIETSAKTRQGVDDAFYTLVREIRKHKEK
KRAS G12D, sequence (P62937 whole entry): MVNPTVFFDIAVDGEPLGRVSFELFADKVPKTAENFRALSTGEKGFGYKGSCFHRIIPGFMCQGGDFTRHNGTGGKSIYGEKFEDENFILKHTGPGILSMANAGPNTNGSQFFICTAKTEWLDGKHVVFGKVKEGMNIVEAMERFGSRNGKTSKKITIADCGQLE
KRAS G12S, sequence (P01116-2 other isoform, or with tags, fused parts or gaps G12S): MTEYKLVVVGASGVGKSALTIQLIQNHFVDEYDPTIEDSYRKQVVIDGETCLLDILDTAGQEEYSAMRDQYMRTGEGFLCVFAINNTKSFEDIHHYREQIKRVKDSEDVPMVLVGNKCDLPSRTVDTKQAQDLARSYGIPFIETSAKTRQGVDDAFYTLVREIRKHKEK
KRAS G12S, sequence (P62937 whole entry): as the sequence (P62937 whole entry) above
KRAS Q61H, sequence (P01116-2 other isoform, or with tags, fused parts or gaps Q61H): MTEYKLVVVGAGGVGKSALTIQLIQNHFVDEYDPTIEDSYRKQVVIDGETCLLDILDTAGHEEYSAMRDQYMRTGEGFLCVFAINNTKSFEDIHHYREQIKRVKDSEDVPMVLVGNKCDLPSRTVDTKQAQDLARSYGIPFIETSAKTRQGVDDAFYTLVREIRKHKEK
KRAS Q61H, sequence (P62937 whole entry): as the sequence (P62937 whole entry) above
NRAS G12C, sequence (P01111 whole entry G12C): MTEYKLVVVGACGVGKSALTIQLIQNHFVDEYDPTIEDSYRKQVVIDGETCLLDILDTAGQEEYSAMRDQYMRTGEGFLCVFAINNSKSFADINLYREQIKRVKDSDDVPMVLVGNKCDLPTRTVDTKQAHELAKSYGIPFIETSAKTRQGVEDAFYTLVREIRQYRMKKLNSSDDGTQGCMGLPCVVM
NRAS G12C, sequence (P62937 whole entry): as the sequence (P62937 whole entry) above
KRAS WT, sequence (P01116-2 other isoform, or with tags, fused parts or gaps): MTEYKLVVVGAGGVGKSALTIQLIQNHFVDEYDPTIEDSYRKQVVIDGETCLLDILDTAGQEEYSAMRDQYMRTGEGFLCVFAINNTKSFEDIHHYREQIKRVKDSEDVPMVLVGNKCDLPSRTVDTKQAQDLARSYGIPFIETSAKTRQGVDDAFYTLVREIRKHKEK
KRAS WT, sequence (P62937 whole entry): as the sequence (P62937 whole entry) above
K-Ras G13C, sequence (P01116-2 other isoform, or with tags, fused parts or gaps G13C): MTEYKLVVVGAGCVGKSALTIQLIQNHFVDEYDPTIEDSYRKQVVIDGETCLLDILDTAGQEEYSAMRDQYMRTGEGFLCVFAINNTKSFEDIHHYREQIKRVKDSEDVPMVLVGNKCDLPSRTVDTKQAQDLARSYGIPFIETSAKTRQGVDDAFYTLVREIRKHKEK
K-Ras G13C, sequence (P62937 whole entry): as the sequence (P62937 whole entry) above
KRAS G12V, sequence (P01116-2 other isoform, or with tags, fused parts or gaps G12V): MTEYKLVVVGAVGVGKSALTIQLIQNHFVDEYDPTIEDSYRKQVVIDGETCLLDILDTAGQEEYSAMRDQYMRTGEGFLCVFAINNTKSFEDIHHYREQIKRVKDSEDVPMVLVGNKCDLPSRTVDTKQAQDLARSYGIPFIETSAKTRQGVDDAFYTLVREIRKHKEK
KRAS G12V, sequence (P62937 whole entry): as the sequence (P62937 whole entry) above
NRAS WT, sequence (P01111 whole entry): as the sequence (P01111 whole entry G12C) above, with C12G counted along it
NRAS WT, sequence (P62937 whole entry): as the sequence (P62937 whole entry) above
NRAS Q61K, sequence (P01111 whole entry Q61K): as the sequence (P01111 whole entry G12C) above, with C12G, Q61K counted along it
NRAS Q61K, sequence (P62937 whole entry): as the sequence (P62937 whole entry) above
NRAS Q61R, sequence (P01111 whole entry Q61R, canonical isoform): as the sequence (P01111 whole entry G12C) above, with C12G, Q61R counted along it
NRAS Q61R, sequence (P62937 whole entry, canonical isoform): as the sequence (P62937 whole entry) above
KRAS G13D, sequence (P01116-2 other isoform, or with tags, fused parts or gaps G13D): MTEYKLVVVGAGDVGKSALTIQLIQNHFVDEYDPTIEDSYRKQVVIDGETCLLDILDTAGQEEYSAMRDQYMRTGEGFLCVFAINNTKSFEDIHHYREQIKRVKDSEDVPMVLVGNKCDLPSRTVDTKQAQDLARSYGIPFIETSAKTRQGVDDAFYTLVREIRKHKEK
KRAS G13D, sequence (P62937 whole entry): as the sequence (P62937 whole entry) above

IC50 (KRAS G13D) [nM] | Compound | EC50 ([1]; Homo sapiens, NCI-H358) [nM] | IC50 (NCI-H358 (K-Ras G12C); Homo sapiens, NCI-H358, 120 h) [nM] | IC50 (K-Ras G13C) [nM] | IC50 (KRAS G12S; [2]) [nM] | IC50 (KRAS G12D; [3]) [nM] | IC50 (KRAS G12V) [nM] | IC50 (KRAS WT) [nM] | IC50 (NRAS G12C) [nM] | IC50 (NRAS Q61R) [nM] | IC50 (NRAS Q61K) [nM] | IC50 (NRAS WT) [nM] | EC50 [1] [nM] | IC50 (NCI-H358 (K-Ras G12C)) [nM] | IC50 (KRAS Q61H; [4]) [nM] | IC50 (KRAS G12S; read-out: KRAS G12S FRET data IC50; Ras-Raf disruption/FRET/MOA assay; class symbols) [nM] | IC50 (KRAS G12D; read-out: KRAS G12D FRET data IC50; Ras-Raf disruption/FRET/MOA assay; class symbols) [nM] | IC50 (KRAS Q61H; read-out: KRAS Q61H FRET data IC50; Ras-Raf disruption/FRET/MOA assay; class symbols) [nM]
 | C=CC(=O)N(C)[C@H]1CCN(C(=O)N(C)[C@H](C(=O)N[C@H]2Cc3nc(cs3)-c3ccc4c(c3)c(c(-c3cccnc3[C@H](C)OC)n4CC)CC(C)(C)COC(=O)[C@@H]3CCCN(N3)C2=O)C(C)C)C1 (atropisomer, axis not shown) [Example A384] | < 5000 | < 10 | 100 to 1000 | 100 to 1000 | 100 to 1000 | 100 to 1000 | 100 to 1000 | 10 to 100 | 100 to 1000 | 10 to 100 | 100 to 1000 |  |  |  |  |  | 
 | C=CC(=O)N1CC[C@H](C(=O)N(C)[C@H](C(=O)N[C@H]2Cc3cc(O)cc(c3)-c3ccc4c(c3)c(c(-c3cnn5c3[C@@H](OC)CCC5)n4CC)CC(C)(C)COC(=O)[C@@H]3CCCN(N3)C2=O)C(C)C)C1 [Example A333] |  |  |  | 10 to 100 | 100 to 1000 |  |  |  |  |  |  | < 5000 | < 10 | 10 to 100 |  |  | 
1000 to 10000 | CCn1c(-c2cccnc2[C@H](C)OC)c2c3cc(ccc31)N1CCC[C@@H](C[C@H](NC(=O)[C@H](C(C)C)N(C)C(=O)C3(F)CCN(C(=O)C#CC(C)(C)N(C)C)CC3)C(=O)N3CCC[C@H](N3)C(=O)OCC(C)(C)C2)C1 (atropisomer, axis not shown) [Example A616] |  |  | 1000 to 10000 | 1000 to 10000 | > 10000 | 1000 to 10000 | 1000 to 10000 | < 10 |  |  | 1000 to 10000 | < 5000 | < 10 | 1000 to 10000 |  |  | 
 | C=CC(=O)N1CC[C@H](C(=O)N(C)[C@H](C(=O)N[C@H]2Cc3cc(sn3)-c3ccc4c(c3)c(c(-c3cccnc3[C@H](C)OC)n4CC)CC(C)(C)COC(=O)[C@@H]3CCCN(N3)C2=O)C(C)C)C1 (atropisomer, axis not shown) [Example A277] | < 5000 | 100 to 1000 |  |  |  |  |  |  |  |  |  |  |  |  | 1000 to 10000 | > 10000 | 100 to 1000
 | C=CC(=O)N1CCN(C(=O)N(C)[C@H](C(=O)N[C@H]2Cc3nc(cs3)-c3ccc4c(c3)c(c(-c3cccnc3[C@H](C)OC)n4CC)CC(C)(C)COC(=O)[C@@H]3CCCN(N3)C2=O)C(C)C)CC1 (atropisomer, axis not shown) [Example A492] |  |  |  | 10 to 100 | 100 to 1000 |  |  |  |  |  |  | < 5000 | < 10 | 10 to 100 |  |  | 
 | C=CC(=O)N1CCN(C(=O)N(C)[C@H](C(=O)N[C@H]2Cc3cc(O)cc(c3)-c3ccc4c(c3)c(c(-c3cccnc3[C@H](C)OC)n4CC)CC(C)(C)COC(=O)[C@@H]3CCCN(N3)C2=O)C(C)C)CC1 [Example A338] |  |  |  | 10 to 100 | 100 to 1000 |  |  |  |  |  |  | < 5000 | 10 to 100 | 10 to 100 |  |  | 
 | C=CC(=O)N1CC[C@H](C(=O)N(C)[C@H](C(=O)N[C@H]2CC3=NC=C(O3)c3ccc4c(c3)c(c(-c3cccnc3[C@H](C)OC)n4CC)CC(C)(C)COC(=O)[C@@H]3CCCN(N3)C2=O)C(C)C)C1 (atropisomer, axis not shown) [Example A331] |  |  |  | 1000 to 10000 | > 10000 |  |  |  |  |  |  | < 5000 | 100 to 1000 | 1000 to 10000 |  |  | 
